Test results: paper PMC7830597, “Derivatives of Tenuazonic Acid as Potential New Multi-Target Anti-Alzheimer’s Disease Agents” (Biomolecules, 2021)

Assays:
Aβ1-42 = molecular target: T1, Aβ1-42 (Homo sapiens, UniProt P05067); experiment: biochemical; details: Aβ1-42; inhibitor 40 µM; SEM < 10%; read-out: Inhib. Aβ Aggreg. Self-Induced
T1 construct: Amyloid β peptide (Aβ1-42) was purchased from GeneCust as a lyophilised powder; purchased GeneCust
Protocol: The anti-amyloidogenic activity of all the compounds was also evaluated in vitro, in the absence and in presence of Cu(II), by measuring the fluorescence emission of Thioflavin T (ThT).
The spectrofluorimetric method, based on the fluorescence emission of thioflavin T (ThT), was used to study the Aβ1-42 aggregation inhibition. Firstly, Aβ1-42 was dissolved in HFIP (1,1,1,3,3,3-Hexafluoro-2-propanol) and kept overnight at room temperature in order to obtain a dry film. […] The ligand solutions were prepared with MeOH (1mg/mL) and further with phosphate buffer. […] As a control, a solution of 30 μL of phosphate buffer and 30 μL of Aβ1-42 was used to observe the aggregation without any inhibition, while the ligand assay solutions were composed of 20 μL of phosphate buffer, 30 μL of Aβ1-42 and 10 μL of ligand. The Cu-induced aggregation studies were similarly conducted, adding 10 μL of CuCl2 to induce the fibril aggregation. Each experiment was composed of an assay and a blank sample, where the blank sample lacks Aβ1-42, to monitor the effect of the compounds on the fluorescence emission. The samples were left to incubate in a CERTOMAT WR water bath for 24 h at 37 °C with shaking. After 24 h, a Glycine-NaOH buffer (pH = 8.5) containing ThT were added to each sample in a microplate. The fluorescence signal was monitored at 446 nm (λexc) and 486 nm (λem) with a Varian Cary Eclipse fluorimeter. Amyloid β peptide (Aβ1-42) was purchased from GeneCust as a lyophilised powder and stored at −20 °C [12, 13, 14].

[1] = molecular target: AChE of electroforus electricus (electric eel) (Electrophorus electricus, UniProt O42275); experiment: biochemical; details: AChE from electric eel; mean of three independent experiments ± SEM; read-out: eeAChEi IC50
Protocol: All new racemic compounds were tested as acetylcholinesterase inhibitors via an in vitro assay, following a modification of Ellman’s method in three independent experiments, using tacrine as a reference compound. […] Enzyme inhibition assays were performed using an adaptation of Ellman’s method. The readings were made in a spectrophotometer Perkin-Elmer Lambda 35 UV-Vis. Enzyme activity is measured by following the increase in yellow color produced from thiocholine when it reacts with dithiobisnitrobenzoate ion (DTNB). DTNB solution was obtained dissolving the reagent in HEPES buffer with salts, namely NaCl (50 mM) and MgCl2 (20 mM), obtaining a 3 mM solution. The enzyme AChE of electroforus electricus (electric eel) stock (500 U) was dissolved in TRIS 50 mM, pH 8.0, being posteriorly diluted to assay concentrations (5 U), obtaining an aliquot of 1 mL. The enzyme substrate used was acetylthiocholine iodide (AThCh, 16 mM), which was prepared with deionized water. The compounds tested were diluted in MeOH or DMSO (1 mg/mL, 2–7 × 10^−3 M), with further dilution, and five different concentrations were used for each compound, obtaining different percentages of AChE inhibition. The assay consists in the addition of HEPES (50 mM, pH = 8), inhibitor, AChE and MeOH in a 1 mL cuvette. The mixture was left to incubate for 15 min and, after that, AThCh and DTNB were added. The enzymatic reaction was followed through the measurements of absorbencies at 405 nm (Perkin Elmer Lambda 35 spectrophotometer equipped with a temperature programmer PTP 1þ1 Peltier System, using thermostated (T = 25.0 ± 0.1 °C) 1 cm path length cells) during 5 min. A blank solution containing all the components except the enzyme, that was substituted for equal volume of HEPES, was used. A control reaction was used using MeOH instead of the new compounds and was considered the reaction corresponding to 100% enzymatic activity. Each assay was performed in quintupled.

AChE of electroforus electricus (electric eel), sequence (O42275 24-633): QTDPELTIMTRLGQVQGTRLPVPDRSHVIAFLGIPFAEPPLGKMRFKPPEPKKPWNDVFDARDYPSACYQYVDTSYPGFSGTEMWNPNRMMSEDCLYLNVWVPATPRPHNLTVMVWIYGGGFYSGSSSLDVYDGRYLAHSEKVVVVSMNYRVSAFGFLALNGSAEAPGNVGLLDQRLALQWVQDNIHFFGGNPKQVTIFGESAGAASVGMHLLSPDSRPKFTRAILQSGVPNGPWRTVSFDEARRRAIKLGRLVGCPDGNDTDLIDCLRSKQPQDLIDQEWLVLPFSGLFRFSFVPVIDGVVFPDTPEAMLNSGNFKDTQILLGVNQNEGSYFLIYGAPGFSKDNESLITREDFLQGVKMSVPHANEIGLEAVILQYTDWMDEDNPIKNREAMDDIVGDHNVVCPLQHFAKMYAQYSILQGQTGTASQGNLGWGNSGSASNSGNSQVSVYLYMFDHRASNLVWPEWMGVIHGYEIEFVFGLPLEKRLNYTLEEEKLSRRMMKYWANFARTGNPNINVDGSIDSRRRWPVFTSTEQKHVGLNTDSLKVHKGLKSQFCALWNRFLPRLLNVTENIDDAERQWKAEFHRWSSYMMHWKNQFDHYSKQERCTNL
T1 sequence (P05067 672-713 limits assumed): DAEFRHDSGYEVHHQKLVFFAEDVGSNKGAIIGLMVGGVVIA

Compound | inhibition at 40 µM (Aβ1-42) [%] | IC50 [1] [µM]
CCOC(=O)C1=C(O)C(C(C)C)NC1=O (stereo not shown) [Compound 1, Ethyl 4-hydroxy-5-isopropyl-2-oxo-2,5-dihydro-1H-pyrrole-3-carboxylate] | 32.9 | 42 ± 3
CCOC(=O)C1=C(O)C(Cc2ccccc2)NC1=O (stereo not shown) [Compound 2, Ethyl 5-benzyl-4-hydroxy-2-oxo-2,5-dihydro-1H-pyrrole-3-carboxylate] | 12.4 | 57 ± 4
